Measurements taken from patent US20230193262A1, “Nucleic acid molecules capable of modulating target gene expression and uses thereof” (KOREA ADVANCED INSTITUTE OF SCIENCE AND TECHNOLOGY, priority 2021, published 2023).
{Cy5.5} = Cy5.5 fluorophore label

Key:
Assay type in all cases: cell-based
[1] = system: breast cancer cell line MDA-MB-231; assay: Cell viability / apoptosis in MDA-MB-231
Description: (§1) The miRNA triggers were assayed for cytotoxicity and apoptosis induction, using the CCK-8 (Cell Counting Kit-8) (Dojindo, Kumamoto, Japan) according to the manufacturer's instruction. Cells were incubated in 96-well plates (5×10^3 cells/well) at 37° C. for 24 hours under a 5% CO2 atmosphere, followed by transfection. Three days after transfection, the medium was removed. A 10-fold dilution of CCK-8 solution in DMEM was added to the cells which were then incubated at 37° C. for 2 hours. After incubation, absorbance was read at 450 nm on Tecan Infinite M200 pro microplate reader (Mnnedorf, Switzerland).
The seven linear miRNA triggers prepared above and the positive control siRNA(siBcl-xL) capable of binding to bcL-xL were transfected into the breast cancer cell line MDA-MB-231 in which miR-222 is overexpressed. Cell viability was measured and is depicted in FIG. 32a.
Linear miRNA triggers that could bind to miR-222 and target bcl-xL and mcl-1, respectively, were prepared and transfected alone or in combination into the breast cancer cell line MDA-MB-231. Cell viability was measured and the measurements are depicted in FIG. 34. siRNAs against Mcl-1 and Bcl-xL were used as controls. […]
The hairpin miRNA triggers prepared above were transfected into MDA-MB-231 and MDA-MB-453 cells which were then measured for cell viability. […]

[2] = system: breast cancer cell line MDA-MB-453; assay: Cell viability / apoptosis in MDA-MB-453; conditions: for apoptosis: MDA-MB-453; for cell viability: MDA-MB-453 (does not express miR-222)
Description: as §1
(§2) The selected linear miRNA triggers (bcl-xL(1)_22_2222 and bcl-xL(2)_222_222) were transfected into the breast cancer cell line MDA-MB-453 to which miR-222 is not endogenous. Cell viability, and the mRNA and protein expression levels of the target gene (bcl-xL) were measured and the results are depicted in FIGS. 33a to 33c.
The hairpin miRNA triggers prepared above were transfected into MDA-MB-231 and MDA-MB-453 cells which were then measured for cell viability. The results are depicted in FIG. 37.
The MCL-1-222-222 miRNA trigger, which utilizes miR-222 to regulate MCL-1 gene, and the BCL-xL-let7f-let7f miRNA trigger, which utilizes miR-let7f to regulate BCL-xL gene, were administered to MDA-MB-231 and MDA-MB-453.
Next, apoptosis was examined when the two types of miRNA triggers were co-administered to cells. The total concentration of the two triggers was 120 nM, which was the same as for individual miRNAs. The results are depicted in FIG. 47.

[3] = system: BCL-xL mRNA; assay: bcl-xL mRNA expression / gene regulation efficiency; conditions: MDA-MB-453
Description: In the same manner as in Reference Example 4, miRNA triggers were transfected into cells. After 48 hours, total RNA was extracted using TRIzol (Thermo Fisher Scientific) according to the manufacturer's instruction. The purified RNA was treated with DNase I and then reverse transcribed in the presence of RevertAid reverse transcriptase (Thermo Fisher Scientific), with random hexamers (Thermo Fisher Scientific) serving as primers. For use in amplification of target genes, primers for target genes were added, together with the cDNA, to the SYBR Green PCR master mix (Thermo Fisher Scientific). RT-qPCR was conducted on a StepOnePlus real-time PCR system. Cq values obtained from this analysis was quantitatively analyzed based on the 2^−ΔΔC(t) method.
as §2
After treatment with miRNA triggers, mRNA expression levels of the target gene BCL-xL were measured. […]

[4] = system: Bcl-xL; assay: Western blot of Bcl-xL protein; conditions: MDA-MB-453
Description: (§3) miRNA triggers were transfected into cells in the same manner as in Reference Example 4. After 72 hours, the cells were collected using a cell scraper and lysed with a RIPA buffer (NaCl 150 mM, EDTA 5 mM, Tris 50 mM, NP-40 1.0%, sodium deoxycholate 0.5%, SDS 0.1%). The cell lysate was sonicated 15 times, each for 20 sec, with a halt for 30 sec every sonication. Following centrifugation at 5,000 g for 5 min, the supernatant was taken and used to extract proteins therefrom. A total of 30-40 μg of protein sample was separated in 10-15% SDS-PAGE gel and transferred onto a PVDF membrane through a semi-dry blotting system. The membrane was blocked for 1 hour in 5% skimmed milk and incubated for 2 hours with a 1,000-fold dilution of a primary antibody in, 1% skimmed milk. […] The membrane incubated with the secondary antibody was washed three times with 1×PBST for 10 min each wash, and then reacted with Clarity Western ECL Substrate (#1705061, Bio-Rad), after which images were obtained and analyzed using ChemiDoc (Bio-rad, Hercules, USA).
The cells transfected with the selected miRNA triggers were measured for protein expression levels of the target Bcl-xL and the apoptotic marker cleaved PARP through western blotting, and the results are depicted in FIG. 32b. […]

[5] = system: Hela-141 cells; assay: Cell viability / apoptosis (CCK-8) in Hela-141 cells; conditions: Hela-141 cells (express miR-141)
Description: as §1
(§4) The linear miRNA triggers or siRNAs (siLuc and siMcl-1) prepared above were transfected into Hela, Hela-141, and Hela-200c cells which were then measured for cell viability. The results are depicted in FIG. 15.
The hairpin miRNA triggers prepared above were transfected into Hela and Hela-141 cells which were then assayed for apoptosis. As a control, the siRNA (siMcl-1; Table 14) which can repress the expression of mcl-1 was transfected to Hela and Hela-141 cells and measured for apoptotic activity.

[6] = system: Hela-200c cells; assay: Cell viability / apoptosis (CCK-8) in Hela-200c cells
Description: as §1, §4

[7] = system: Mcl-1; assay: Western blot of Mcl-1 protein in Hela-141 cells; conditions: 5 to 120 nM, compared to the control Luc-141-141
Description: as §3
A linear miRNA trigger (Mcl-1-141-141; Table 15) that could bind to miR-141 and target mcl-1 was prepared while a linear miRNA trigger (Luc-141-141; Table 9) that could bind to miR-141 and target Luc (luciferase) was used as a control. […] Then, proteins were extracted from the Hela-141 cells and quantitatively analyzed for Mcl-1 protein level by western blotting. […]

[8] = system: MOLM-14, MV4-11 and Hela cells; assay: Fluorescence (IVIS 100) of cells transfected with Cy5.5-labeled trigger; conditions: Lipofectamine
Description: With the aid of Lipofectamine, the linear miRNA trigger (5′-Cy5.5-miR-155-miR-155-PKR-3′) was transfected into the FLT3-ITD mutant AML cell lines MOLM-14 and MV4-11 and the solid cancer cell line Hela. […] Subsequent animal tests were performed with the trigger.

MCL-1-let7f-let7f: linear miRNA trigger designed to knock down MCL-1 by using miR-let7f; SEQ ID NO 113 (AACUAUACAAUGAACUACCUCAAACUAUACAAUGAACUACCUCACCGAACUACGUAGC; all 2'-O-methyl, backbone not given here)
apoptosis ([1]; Examples 12-13): none of the two cell lines were induced to undergo apoptosis
apoptosis ([2]; Example 13): none of the two cell lines were induced to undergo apoptosis

bcl-xL(2)_222_222: linear miRNA trigger binding miR-222 and knocking down bcl-xL; SEQ ID NO 107 (ACCCAGUAGCCAGAUGUAGCUACCCAGUAGCCAGAUGUAGCUUACCUGCCAGCCUCCUU; all 2'-O-methyl, backbone not given here)
cell viability [2]: did not significantly change
mRNA expression level of target bcl-xL [3]: did not significantly change
protein expression level of target bcl-xL [4]: did not significantly change

Mcl-1-141-141: linear miRNA trigger binding miR-141 and targeting mcl-1; SEQ ID NO 65 (Table 25: 110) (CCAUCUUUACCUCACAGUGUUACCAUCUUUACCUCACAGUGUUACCGAACUACGUAGC; all 2'-O-methyl, backbone not given here)
apoptosis induced [5]: up to 40%
apoptosis / cell viability [6]: no significant influence on cell viability
Mcl-1 protein level [7]: significantly decreased in Mcl-1 protein level

MCL-1-222-222: linear miRNA trigger which utilizes miR-222 to regulate MCL-1 gene; SEQ ID NO 109 (ACCCAGUAGCCAGAUGUAGCUACCCAGUAGCCAGAUGUAGCUCCGAACUACGUAGC; all 2'-O-methyl, backbone not given here)
apoptosis ([1]; 120 nM (total)): no apoptosis was observed
apoptosis ([2]; 120 nM (total)): did not induce apoptosis

B1: 5′-Cy5.5-miR-155-miR-155-PKR-3′: linear miRNA trigger binding miR-155, targeting PKR, labeled with Cy5.5 fluorophore; SEQ ID NO 69 (conjugate)
chain: UUAUGUUUCAGGUUCAGGGGGAUUAUGUUUCCAGGUUCAGGGGGAUAUGUGAGGCAGAGAACGA
modifications: all 2'-O-methyl, 5' {Cy5.5}, backbone not given here
Cy5.5 fluorescence of transfected cells [8]: Fluorescence was detected

B2: bcl-xL(1)_222_222: linear miRNA trigger binding miR-222 and knocking down bcl-xL; SEQ ID NO 106 (nucleic acid)
chain: ACCCAGUAGCCAGAUGUAGCUACCCAGUAGCCAGAUGUAGCUUCUCCUUCCUGCCCUUCCU
modifications: all 2'-O-methyl, backbone not given here
cell viability [2]: did not significantly change
mRNA expression level of target bcl-xL [3]: did not significantly change
protein expression level of target bcl-xL [4]: did not significantly change
